Source: patent US20040152740A1, “Arylglycine derivatives for use as glycine transport inhibitors” (NPS Allelix Corporation, priority 2002, published 2004)
pIC50: −log10 of the molar value.

biological target: T1, human GlyT-2 (Homo sapiens, UniProt Q9Y345); assay: Assay of transport via GlyT-2 transporters: [3H]glycine uptake by stably transfected cultured cells; format: cell-based; settings: cells stably transfected with human GlyT-2; 50 nM [3H]glycine; ten minutes at 37° C.; read-out: GlyT1 uptake IC50
T1 construct: expressed in transfected cells; elsewhere 'preferably QT-6 cells derived from quail fibroblasts'
T1 sequence (Q9Y345 1-797): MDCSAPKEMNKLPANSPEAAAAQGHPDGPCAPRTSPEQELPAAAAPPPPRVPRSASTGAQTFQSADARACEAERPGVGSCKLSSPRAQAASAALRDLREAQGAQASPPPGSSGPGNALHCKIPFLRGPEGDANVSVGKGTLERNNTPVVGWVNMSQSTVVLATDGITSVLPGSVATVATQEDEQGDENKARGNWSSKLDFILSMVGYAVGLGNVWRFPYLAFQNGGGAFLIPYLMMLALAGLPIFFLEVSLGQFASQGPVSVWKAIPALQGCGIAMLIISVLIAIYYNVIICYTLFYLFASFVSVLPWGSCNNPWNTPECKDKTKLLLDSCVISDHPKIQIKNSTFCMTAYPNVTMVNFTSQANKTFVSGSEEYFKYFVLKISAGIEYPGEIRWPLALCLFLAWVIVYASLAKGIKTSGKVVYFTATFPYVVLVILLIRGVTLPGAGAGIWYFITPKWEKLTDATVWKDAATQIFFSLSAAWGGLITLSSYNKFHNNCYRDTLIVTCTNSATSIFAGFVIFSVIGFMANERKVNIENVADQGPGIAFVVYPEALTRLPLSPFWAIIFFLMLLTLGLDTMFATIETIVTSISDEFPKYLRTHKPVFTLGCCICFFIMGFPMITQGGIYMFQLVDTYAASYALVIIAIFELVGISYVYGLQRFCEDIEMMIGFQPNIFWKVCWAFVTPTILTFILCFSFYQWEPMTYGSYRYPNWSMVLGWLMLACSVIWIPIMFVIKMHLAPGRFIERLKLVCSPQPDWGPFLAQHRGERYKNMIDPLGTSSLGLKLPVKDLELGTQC
Protocol: This example illustrates a method for the measurement of glycine uptake by transfected cultured cells.
Cells stably transfected with human GlyT-2 (the homolog of the rat GlyT-2 described by Liu et al., J. Biological Chemistry, 268, 1993:22802-22808) were washed twice with HEPES buffered saline (HBS). The cells were then incubated ten minutes at 37° C., after which a solution containing 50 nM [^3H]glycine (17.5 Ci/mmol) and either (a) no potential competitor, (b) […] or (c) a concentration of a candidate drug. A range of concentrations of the candidate drug was used to generate data for calculating the concentration resulting in 50% of the effect (e.g., the IC50's which are the concentration of drug inhibiting glycine uptake by 50%). The cells were then incubated another ten minutes at 37° C., after which the cells were aspirated and washed three times with ice-cold HBS. The cells were solubilized in scintillant, shaken for thirty minutes, and the radioactivity in the cells was counted using a scintillation counter. Data were compared between the same cells contacted and not contacted by the candidate agent.

Compound	pIC50
COc1ccc(NC(=S)NC(C(=O)Nc2c(C)cccc2C(C)C)c2ccccc2)c([N+](=O)[O-])c1 (stereo not shown) [Example E28.1, N-(2-isopropyl-6-methylphenyl)-2-[3-(4-methoxy-2-nitrophenyl)-thioureido]-2-phenyl acetamide]	7.28
CCOc1ccc(NC(=S)NC(C(=O)Nc2c(C)cccc2C)c2ccccc2)c([N+](=O)[O-])c1 (stereo not shown) [Example E33.1, N-(2,6-dimethylphenyl)-2-[3-(4-ethoxy-2-nitrophenyl)-thioureido]-2-phenyl acetamide]	7.31
COc1ccc(NC(=S)NC(C(=O)Nc2c(C)cccc2Cl)c2ccccc2)c([N+](=O)[O-])c1 (stereo not shown) [Example E29.1, N-(2-chloro-6-methylphenyl)-2-[3-(4-methoxy-2-nitrophenyl)-thioureido]-2-phenyl acetamide]	7.64
CCOc1ccc(NC(=S)NC(C(=O)Nc2ccccc2C)c2ccccc2)c([N+](=O)[O-])c1 (stereo not shown) [Example E4.3, N-(2-methylphenyl)-2-[3-(4-ethoxy-2-nitrophenyl)-thioureido]-2-phenyl acetamide]	6.76
Cc1cccc(C)c1NC(=O)C(NC(=S)Nc1ccc(S(=O)(=O)N(C)C)cc1[N+](=O)[O-])c1ccccc1 (stereo not shown) [Example E33.5]	7.85
Cc1cccc(C)c1NC(=O)C(NC(=S)Nc1ccc(OCCN(C)C)cc1[N+](=O)[O-])c1ccccc1 (stereo not shown) [Example E33.4, N-(2.6-dimethylphenyl)-2-[3-(4-(2-N,N-dimethylamino)ethoxy-2-nitrophenyl)-thioureido]-2-phenyl acetamide]	6.74
COc1ccc(NC(=S)NC(C(=O)Nc2c(C)cccc2C)c2ccccc2)c([N+](=O)[O-])c1 (stereo not shown) [Example E33.6, N-(2,6-dimethylphenyl)-2-[3-(4-methoxy-2-nitrophenyl)-thioureido]-2-phenyl acetamide]	7.46
COc1ccc(NC(=S)N[C@H](CC(C)C)C(=O)Nc2c(C)cccc2C)c([N+](=O)[O-])c1 [E51.1*]	7.04
Cc1cccc(C)c1NC(=O)C(NC(=S)Nc1ccccc1S(=O)(=O)N(C)C)c1ccccc1 (stereo not shown) [Example E33.2, N-(2,6-dimethylphenyl)-2-[3-(2-N,N-dimethylsulphonamidophenyl)-thioureido]-2-phenyl acetamide]	7.32
Cc1cccc(C)c1NC(=O)C(NC(=S)Nc1ccc(OCCN(C)C)cc1C(F)(F)F)c1ccccc1 (stereo not shown) [Example E33.8, N-(2.6-dimethylphenyl)-2-[3-(4-N,N-dimethylaminoethoxy-2-trifluoromethylphenyl)-thioureido]-2-phenyl acetamide]	6.94
Cc1ccccc1NC(=O)[C@H](NC(=S)Nc1ccccc1[N+](=O)[O-])c1ccccc1 [Example E4.2]	7.11
COc1ccc(NC(=S)NC(C(=O)Nc2ccccc2C)c2ccccc2)c([N+](=O)[O-])c1 (stereo not shown) [Example E4.4, N-(2-methylphenyl)-2-[3-(2-nitro-4-methoxyphenyl)-thioureido]-2-phenyl acetamide]	7.08
COc1ccc(NC(=S)NC(CC(C)C)C(=O)Nc2c(C)cccc2C)c([N+](=O)[O-])c1 (stereo not shown) [Example E51.3, N-(2.6-dimethylphenyl)-2-[3-(4-methoxy-2-nitrophenyl)-thioureido]-4-methylpentanamide]	6.95
